# Data: US20230172906A1, “METHOD TO TREAT VIRAL INFECTION INDUCED BY A CORONAVIRUS” (priority 2020, published 2023)
# Columns and labels:
# [1] = test system: HEK293 cells; settings: melatonin at 10 and 100 μM, FIG. 1B
# [2] = molecular target: T1, RBD/ACE2 interaction (Homo sapiens, UniProt Q9BYF1); format: binding
# T1 construct: expressed in transfected cells; host or cells: HEK293
# [3] = test system: SARS-CoV-2 pseudovirus entry into HEK293 cells expressing human ACE2; format: cell-based
# T1 sequence (Q9BYF1 18-805): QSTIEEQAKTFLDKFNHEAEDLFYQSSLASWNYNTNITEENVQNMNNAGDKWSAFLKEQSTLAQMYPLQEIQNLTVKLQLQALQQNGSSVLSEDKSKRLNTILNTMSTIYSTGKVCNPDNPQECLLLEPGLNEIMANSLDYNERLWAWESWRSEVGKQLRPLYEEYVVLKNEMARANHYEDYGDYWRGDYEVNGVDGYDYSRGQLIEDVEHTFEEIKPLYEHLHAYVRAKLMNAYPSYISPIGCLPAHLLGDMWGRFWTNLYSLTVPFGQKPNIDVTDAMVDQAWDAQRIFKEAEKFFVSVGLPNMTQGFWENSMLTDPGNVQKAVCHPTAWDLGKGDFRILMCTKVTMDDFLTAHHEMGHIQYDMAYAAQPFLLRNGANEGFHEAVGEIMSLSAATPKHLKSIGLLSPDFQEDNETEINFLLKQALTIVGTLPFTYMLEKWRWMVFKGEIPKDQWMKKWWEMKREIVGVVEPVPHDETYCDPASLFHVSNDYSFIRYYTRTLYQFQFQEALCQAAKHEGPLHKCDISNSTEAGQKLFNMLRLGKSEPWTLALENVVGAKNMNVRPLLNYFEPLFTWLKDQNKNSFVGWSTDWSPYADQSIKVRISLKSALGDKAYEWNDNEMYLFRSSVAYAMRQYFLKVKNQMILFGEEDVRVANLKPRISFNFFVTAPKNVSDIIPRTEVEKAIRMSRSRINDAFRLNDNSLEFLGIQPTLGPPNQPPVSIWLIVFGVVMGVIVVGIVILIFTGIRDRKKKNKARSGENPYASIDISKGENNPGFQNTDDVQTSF
compound,measurement,setting,value
"COc1ccc2[nH]cc(CCNC(C)=O)c2c1 [melatonin, Melatonin]",cell viability,[1],without affecting cell viability
same,binding of RBD-d2 of the SARS-CoV-2 Spike protein to Lumi4-Tb-labeled SNAP-tagged human ACE2,[2],inhibits
same,infection by the SARS-CoV-2 pseudovirus,[3],inhibited
